A short description of the series: Bulk and tapped density of granules / API. The format is physicochemical. To be noted: API alone, prior to granulation and/or formulation. From the text: It is within the ability of one of skill in the art to determine the bulk density of a compound or composition using methods generally accepted in the art. However, suitable methods include, for example, the European Pharmacopeia edition 6, Test 2.9.15 “apparent volume,” pages 285-286, EDQM, 2007, and USP 31, vol. 1, test <616> page 231-232, The United States Pharmacopeia Convention, 2008. Another example of a suitable method is described below:
Apparatus: • settling apparatus capable of producing in 1 minute 250±15 taps from a height of 3±0.2 mm. The support for the graduated cylinder with its holder, has a mass of 450±5 g • a 250 ml graduated cylinder (2 ml intervals) with a mass of 220±40 g
Method: Into a dry cylinder, introduce without compacting, 100.0 g (m g) of the test substance. […] Read the unsettled apparent volume (V0) to the nearest milliliter. Carry out 10, 500 and 1250 taps and read the corresponding volumes V10, V500, V1250, to the nearest milliliter. […]
Alternatively, if it is not possible to select 100.0 g, select a test sample of any mass but with a volume between 50 ml and 250 ml, measure its apparent volume, V0 as described above, and weigh the sample and specify the mass in the expression of results. Bulk/apparent density may then be determined in g/ml using the following formula: […]
Tapped apparent density may then be determined in g/ml using the following formula: […]

The record followed here is patent publication US20210315824A1, “PHARMACEUTICAL FORMULATIONS COMPRISING NITROCATECHOL DERIVATIVES AND METHODS OF MAKING THE SAME” (BIAL - PORTELA & CA, S.A., priority 2009, published 2021).

Molecules are shown by their SMILES.

As to `Cc1nc(Cl)c(-c2noc(-c3cc(O)c(O)c([N+](=O)[O-])c3)n2)c(C)c1Cl` [5-[3-(2,5-dichloro-4,6-dimethylpyridin-3-yl)-[1,2,4]oxadiazol-5-yl]-3-nitrobenzene-1,2-diol], the bulk density result is “around 0.2 g/ml”. As for `Cc1c(Cl)c(C)[n+]([O-])c(Cl)c1-c1noc(-c2cc(O)c(O)c([N+](=O)[O-])c2)n1` [2,5-dichloro-3-(5-(3,4-dihydroxy-5-nitrophenyl)-1,2,4-oxadiazol-3-yl)-4,6-dimethylpyridine 1-oxide], the entry is “less than 0.1 g/ml”.
